Patent publication US20250019377A1 (JACOBIO PHARMACEUTICALS CO., LTD, priority 2021, published 2025)
pIC50: −log10 of the molar value. “And” between values parts separate entries of the source, which are not always exact repeats. Identical values can stand only once. Like-named read-outs stand apart in the source and are kept apart here.

Experiments:
K-Ras WT [1] = molecular target: T1, K-Ras WT (Homo sapiens, UniProt P01116); experiment: GTP-K-Ras and cRAF interaction assay (GppNp-K-Ras), K-Ras WT; details: read-out: K-Ras WT GppNp Biochemical Activity (IC50)
T1 sequence (P01116 1-169 isoform P01116-2): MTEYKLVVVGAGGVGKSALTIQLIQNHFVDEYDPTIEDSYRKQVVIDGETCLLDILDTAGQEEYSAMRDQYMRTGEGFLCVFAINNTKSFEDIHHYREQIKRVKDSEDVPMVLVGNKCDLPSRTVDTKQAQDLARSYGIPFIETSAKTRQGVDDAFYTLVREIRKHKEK

K-Ras G12D [2] = molecular target: T2, K-Ras G12D (Homo sapiens, UniProt P01116, G12D)
T2 sequence (P01116 1-169 isoform P01116-2 G12D): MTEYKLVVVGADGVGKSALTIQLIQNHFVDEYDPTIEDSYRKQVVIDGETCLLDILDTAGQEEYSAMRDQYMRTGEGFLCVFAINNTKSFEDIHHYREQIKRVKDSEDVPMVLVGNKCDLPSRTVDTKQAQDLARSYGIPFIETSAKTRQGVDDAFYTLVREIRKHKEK

K-Ras G13D [3] = molecular target: T3, K-Ras G13D (Homo sapiens, UniProt P01116, G13D)
T3 sequence (P01116 1-169 isoform P01116-2 G13D): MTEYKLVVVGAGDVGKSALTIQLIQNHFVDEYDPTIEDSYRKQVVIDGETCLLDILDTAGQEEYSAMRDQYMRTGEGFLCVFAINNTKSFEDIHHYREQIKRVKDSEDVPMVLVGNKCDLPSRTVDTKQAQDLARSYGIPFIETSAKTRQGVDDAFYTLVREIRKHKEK

AGS cells (K-Ras G12D) = experiment: 2D cell growth inhibition assay, AGS; format: cell-based; details: Homo sapiens, 144 h, 6 days, absolute IC50
[4] = system: p-ERK in SW620 cells (K-Ras G12V); experiment: Phospho-ERK1/2(THR202/TYR204) HTRF assay, SW620; format: cell-based; details: Homo sapiens, SW-620, 2 h, 2 hours incubation
K-Ras G12V [5] = molecular target: T4, K-Ras G12V (Homo sapiens, UniProt P01116, G12V); experiment: SOS1 catalyzed nucleotide exchange assay (GDP form K-Ras), K-Ras G12V; details: read-out: K-Ras G12V GDP Biochemical Activity (IC50)
T4 sequence (P01116 1-169 isoform P01116-2 G12V): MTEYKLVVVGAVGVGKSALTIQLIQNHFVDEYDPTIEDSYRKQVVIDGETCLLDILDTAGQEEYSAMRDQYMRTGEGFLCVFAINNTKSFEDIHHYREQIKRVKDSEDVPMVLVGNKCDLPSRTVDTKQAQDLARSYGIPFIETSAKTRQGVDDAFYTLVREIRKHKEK

SW620 cells (K-Ras G12V) = experiment: 2D cell growth inhibition assay, SW620; format: cell-based; details: Homo sapiens, SW-620, 144 h, 6 days, absolute IC50
K-Ras G13D [6] = molecular target: T3, K-Ras G13D; experiment: GTP-K-Ras and cRAF interaction assay (GppNp-K-Ras), K-Ras G13D; details: read-out: K-Ras G13D GppNp Biochemical Activity (IC50)
K-Ras WT [7] = molecular target: T1, K-Ras WT; experiment: SOS1 catalyzed nucleotide exchange assay (GDP form K-Ras), K-Ras WT; details: read-out: K-Ras WT GDP Biochemical Activity (IC50)
K-Ras G12V [8] = molecular target: T4, K-Ras G12V; experiment: GTP-K-Ras and cRAF interaction assay (GppNp-K-Ras), K-Ras G12V; details: read-out: K-Ras G12V GppNp Biochemical Activity (IC50)
[9] = system: AsPC-1 cells (K-Ras G12D); experiment: 2D cell growth inhibition assay, AsPC-1; format: cell-based; details: Homo sapiens, ASPC1, 144 h, AsPC-1, K-Ras G12D, 6 days, absolute IC50
K-Ras G12D [10] = molecular target: T2, K-Ras G12D; experiment: GTP-K-Ras and cRAF interaction assay (GppNp-K-Ras), K-Ras G12D; details: read-out: K-Ras G12D GppNp Biochemical Activity (IC50)
[11] = system: p-ERK in AGS cells (K-Ras G12D); experiment: Phospho-ERK1/2(THR202/TYR204) HTRF assay, AGS; format: cell-based; details: Homo sapiens, 2 h, 2 hours incubation
K-Ras G12D [12] = molecular target: T2, K-Ras G12D; experiment: biochemical
K-Ras G12D [13] = molecular target: T2, K-Ras G12D; experiment: biochemical; remark: listed apart in the source
K-Ras G12V [14] = molecular target: T4, K-Ras G12V; experiment: biochemical
K-Ras G13D [15] = molecular target: T3, K-Ras G13D; experiment: biochemical
K-Ras WT [16] = molecular target: T1, K-Ras WT; experiment: biochemical
K-Ras G13D [17] = molecular target: T3, K-Ras G13D; experiment: biochemical; remark: listed apart in the source
K-Ras Q61H [18] = molecular target: T5, K-Ras Q61H (Homo sapiens, UniProt P01116, Q61H); experiment: GTP-K-Ras and cRAF interaction assay (GppNp-K-Ras), K-Ras Q61H; details: read-out: K-Ras Q61H GppNp Biochemical Activity (IC50)
T5 sequence (P01116 1-169 isoform P01116-2 Q61H): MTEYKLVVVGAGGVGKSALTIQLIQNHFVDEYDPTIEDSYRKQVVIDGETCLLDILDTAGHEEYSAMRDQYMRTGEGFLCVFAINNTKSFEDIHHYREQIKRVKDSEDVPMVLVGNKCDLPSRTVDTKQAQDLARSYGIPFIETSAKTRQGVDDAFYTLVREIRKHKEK

K-Ras G12R [19] = molecular target: T6, K-Ras G12R (Homo sapiens, UniProt P01116, G12R); experiment: SOS1 catalyzed nucleotide exchange assay (GDP form K-Ras), K-Ras G12R; details: read-out: K-Ras G12R GDP Biochemical Activity (IC50)
T6 sequence (P01116 1-169 isoform P01116-2 G12R): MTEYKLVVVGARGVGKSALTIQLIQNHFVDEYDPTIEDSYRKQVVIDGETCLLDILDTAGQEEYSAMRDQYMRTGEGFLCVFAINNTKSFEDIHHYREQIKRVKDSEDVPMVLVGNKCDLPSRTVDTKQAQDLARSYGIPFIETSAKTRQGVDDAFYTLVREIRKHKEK

K-Ras G12C [20] = molecular target: T7, K-Ras G12C (Homo sapiens, UniProt P01116, G12C); experiment: GTP-K-Ras and cRAF interaction assay (GppNp-K-Ras), K-Ras G12C; details: read-out: K-Ras G12C GppNp Biochemical Activity (IC50)
T7 sequence (P01116 1-169 isoform P01116-2 G12C): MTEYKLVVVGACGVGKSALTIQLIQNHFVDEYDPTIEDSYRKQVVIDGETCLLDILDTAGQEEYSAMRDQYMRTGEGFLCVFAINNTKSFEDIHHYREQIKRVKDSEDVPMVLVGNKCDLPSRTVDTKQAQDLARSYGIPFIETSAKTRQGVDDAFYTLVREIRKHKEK

K-Ras G12C [21] = molecular target: T7, K-Ras G12C; experiment: SOS1 catalyzed nucleotide exchange assay (GDP form K-Ras), K-Ras G12C; details: read-out: K-Ras G12C GDP Biochemical Activity (IC50)
K-Ras G12R [22] = molecular target: T6, K-Ras G12R; experiment: GTP-K-Ras and cRAF interaction assay (GppNp-K-Ras), K-Ras G12R; details: read-out: K-Ras G12R GppNp Biochemical Activity (IC50)
K-Ras G12A [23] = molecular target: T8, K-Ras G12A (Homo sapiens, UniProt P01116, G12A); experiment: GTP-K-Ras and cRAF interaction assay (GppNp-K-Ras), K-Ras G12A; details: read-out: K-Ras G12A GppNp Biochemical Activity (IC50)
T8 sequence (P01116 1-169 isoform P01116-2 G12A): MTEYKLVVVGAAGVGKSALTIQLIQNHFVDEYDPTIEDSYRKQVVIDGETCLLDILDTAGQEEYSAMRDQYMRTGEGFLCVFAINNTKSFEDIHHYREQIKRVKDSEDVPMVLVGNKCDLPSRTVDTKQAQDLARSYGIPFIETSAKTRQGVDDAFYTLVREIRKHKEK

K-Ras G12A [24] = molecular target: T8, K-Ras G12A; experiment: SOS1 catalyzed nucleotide exchange assay (GDP form K-Ras), K-Ras G12A; details: read-out: K-Ras G12A GDP Biochemical Activity (IC50)
K-Ras Q61H [25] = molecular target: T5, K-Ras Q61H; experiment: SOS1 catalyzed nucleotide exchange assay (GDP form K-Ras), K-Ras Q61H; details: read-out: K-Ras Q61H GDP Biochemical Activity (IC50)
MKN-1 cells (K-Ras WT) = experiment: 3D cell growth inhibition assay, MKN-1; format: cell-based; details: Homo sapiens, 144 h, MKN-1, K-Ras WT, 6 days, absolute IC50
[26] = system: p-ERK in NCI-H747 cells (K-Ras G13D)
[27] = system: p-ERK in NCI-H358 cells (K-Ras G12C); experiment: Phospho-ERK1/2(THR202/TYR204) HTRF assay, NCI-H358; format: cell-based; details: Homo sapiens, 2 hours incubation
[28] = system: NCI-H747 cells (K-Ras G13D)
[29] = system: Capan-2 cells (K-Ras G12V)
[30] = system: NCI-H460 cells (K-Ras Q61H); experiment: 3D cell growth inhibition assay, NCI-H460; format: cell-based; details: Homo sapiens, 144 h, 6 days, absolute IC50
[31] = system: RERF-LC-Ad1 cells (K-Ras G12A)
[32] = system: TCC-PAN2 cells (K-Ras G12R); experiment: 3D cell growth inhibition assay, TCC-PAN2; format: cell-based; details: 144 h, 6 days, absolute IC50
[33] = system: p-ERK in MKN-1 cells (K-Ras WT amplification); experiment: Phospho-ERK1/2(THR202/TYR204) HTRF assay, MKN-1; format: cell-based; details: Homo sapiens; MKN-1, K-Ras WT, 2 hours incubation
[34] = system: p-ERK in TCC-PAN2 cells (K-Ras G12R); experiment: Phospho-ERK1/2(THR202/TYR204) HTRF assay, TCC-PAN2; format: cell-based; details: 2 hours incubation
[35] = system: NCI-H358 cells (K-Ras G12C)
[36] = system: p-ERK in NCI-H460 cells (K-Ras Q61H); experiment: Phospho-ERK1/2(THR202/TYR204) HTRF assay, NCI-H460; format: cell-based; details: Homo sapiens, 2 hours incubation

pIC50 (K-Ras WT [1]) | pIC50 (K-Ras G12D [2]) | pIC50 (K-Ras G13D [3]) | IC50 (AGS cells (K-Ras G12D)) [nM] | IC50 [4] [nM] | pIC50 (K-Ras G12V [5]) | IC50 (SW620 cells (K-Ras G12V)) [nM] | pIC50 (K-Ras G13D [6]) | pIC50 (K-Ras WT [7]) | pIC50 (K-Ras G12V [8]) | IC50 [9] [nM] | pIC50 (K-Ras G12D [10]) | IC50 [11] [nM] | pIC50 (K-Ras G12D [13]) | pIC50 (K-Ras G12V [14]) | pIC50 (K-Ras G13D [15]) | pIC50 (K-Ras WT [16]) | pIC50 (K-Ras G13D [17]) | SMILES | pIC50 (K-Ras Q61H [18]) | pIC50 (K-Ras G12R [19]) | other results
7.80 | 9.13 | 8.56 | 49.7 | 112 | 9.29 | 207 | 8.73 | 9.05 | 6.80 | 708 | 8.14 | 22.9 |  |  |  |  |  | C#Cc1c(F)ccc2cc(O)cc(-c3ncc4c(N5CCOC[C@H](CC#N)C5)nc(OC[C@@]56CCCN5C[C@H](F)C6)nc4c3F)c12 (single isomer, unassigned) [Compound 14B] |  |  | 
 |  |  | 40.1 | 138 | 8.56 | 196 |  | 8.50 |  | 693 |  | 33.8 | ~7.00 | 6.62 | < 7.00 | 6.87 | < 7.00 | C#Cc1c(F)ccc2cc(O)cc(-c3ncc4c(N5CCOCC(C)(O)C5)nc(OC[C@@]56CCCN5C[C@H](F)C6)nc4c3F)c12 (stereo partly drawn) [Compound 23, 4-(7-(8-ethynyl-7-fluoro-3-hydroxynaphthalen-1-yl)-8-fluoro-2-(((2R,7aS)-2-fluorotetrahydro-1H-pyrrolizin-7a(5H)-yl)methoxy)pyrido[4,3-d]pyrimidin-4-yl)-6-methyl-1,4-oxazepan-6-ol trifluoroacetic acid] |  |  | pIC50 (K-Ras G12D [12]): 8.70
 |  |  |  | 238 | 8.31 and 7.41 |  |  | 7.84 and 7.17 |  |  |  | 203 | 6.04 and 5.08 | 5.65 and < 5.00 | 7.53 | 5.90 | < 7.00 | C#Cc1c(F)ccc2cc(O)cc(-c3ncc4c(N5CCOCC(C)(OC)C5)nc(OC[C@@]56CCCN5C[C@H](F)C6)nc4c3F)c12 (stereo partly drawn) [Compound 109, 5-ethynyl-6-fluoro-4-(8-fluoro-2-(((2R,7aS)-2-fluorotetrahydro-1H-pyrrolizin-7a(5H)-yl)methoxy)-4-(6-methoxy-6-methyl-1,4-oxazepan-4-yl)pyrido[4,3-d]pyrimidin-7-yl)naphthalen-2-ol] |  |  | 
7.67 | 9.24 | 8.65 | 5.82 | 5.07 | 9.05 | 8.77 | 8.64 | 8.76 | 7.98 | 53 | 8.13 | 1.44 |  |  |  |  |  | C#Cc1c(F)ccc2cc(O)cc(-c3ncc4c(N5CCCOC[C@H]5C)nc(OC[C@@]56CCCN5C[C@H](F)C6)nc4c3F)c12 (single isomer, unassigned) [Compound 16B] | 7.41 | 9.00 | IC50 (MKN-1 cells (K-Ras WT)): 20.9 nM; pIC50 [26]: 8.45; IC50 [27]: 2.1 nM; pIC50 [28]: 7.67; pIC50 [29]: 6.92; IC50 [30]: 296 nM; pIC50 (K-Ras G12C [20]): 7.23; pIC50 [31]: 7.51; IC50 [32]: 319 nM; pIC50 (K-Ras G12C [21]): 8.95; pIC50 (K-Ras G12R [22]): 7.80; IC50 [33]: 2.97 nM; IC50 [34]: 97.6 nM; pIC50 [35]: 7.86; IC50 [36]: 18.1 nM; pIC50 (K-Ras G12A [23]): 7.01; pIC50 (K-Ras G12A [24]): 8.79; pIC50 (K-Ras Q61H [25]): 8.94
6.13 | 8.42 | 7.85 | 242 | 40.5 | 8.22 | 191 | 7.43 | 8.41 | 6.33 | 1380 | 6.50 | 42.6 |  |  |  |  |  | C#Cc1c(F)ccc2cc(O)cc(-c3ncc4c(N5CCCOC[C@@H]5C)nc(OC[C@@]56CCCN5C[C@H](F)C6)nc4c3F)c12 (single isomer, unassigned) [Compound 16A] |  |  | 

SMILES | pIC50 (K-Ras WT [1]) | pIC50 (K-Ras G12D [2]) | pIC50 (K-Ras G13D [3]) | IC50 (AGS cells (K-Ras G12D)) [nM] | IC50 [4] [nM] | pIC50 (K-Ras G12V [5]) | IC50 (SW620 cells (K-Ras G12V)) [nM] | pIC50 (K-Ras G13D [6]) | pIC50 (K-Ras WT [7]) | pIC50 (K-Ras G12V [8]) | IC50 [9] [nM] | pIC50 (K-Ras G12D [10]) | IC50 [11] [nM] | pIC50 (K-Ras G12D [13]) | pIC50 (K-Ras G12V [14]) | pIC50 (K-Ras G13D [15]) | pIC50 (K-Ras WT [16]) | pIC50 (K-Ras G13D [17]) | pIC50 (K-Ras Q61H [18]) | pIC50 (K-Ras G12R [19]) | other results
C#Cc1c(F)ccc2cc(O)cc(-c3c(Cl)cc4c(N5CCCOCC5)nc(OC[C@@]56CCCN5C[C@H](F)C6)nc4c3F)c12 (atropisomer, axis not shown; (M)) [Compound 19B, (M)-4-(6-chloro-8-fluoro-2-(((2R,7aS)-2-fluorotetrahydro-1H-pyrrolizin-7a(5H)-yl)methoxy)-4-(1,4-oxazepan-4-yl)quinazolin-7-yl)-5-ethynyl-6-fluoronaphthalen-2-ol trifluoroacetic acid] | 6.74 | 8.25 | 7.84 |  |  | 8.28 |  | 8.10 | 8.06 | 6.87 |  | 7.24 |  |  |  |  |  |  | 6.67 | 8.50 | pIC50 (K-Ras G12C [20]): 6.52; pIC50 (K-Ras G12C [21]): 8.43; pIC50 (K-Ras G12R [22]): 7.02; pIC50 (K-Ras G12A [23]): 6.31; pIC50 (K-Ras G12A [24]): 7.80; pIC50 (K-Ras Q61H [25]): 8.18
